Reference: publication PMC3726002 (Bioorganic & medicinal chemistry letters, 2011)

What was measured:
[1] = target: α7 nAChR (Rattus norvegicus, UniProt Q05941); format: cell-based
[2] = target: α9α10 nAChRs (Rattus norvegicus, UniProt P43144+Q9JLB5); format: cell-based; details: for inhibition of α9α10 ACh-gated currents at the probe concentration: 100 nM probe concentration, result in words; for selectivity for the α9α10 subtype vs. the α7 subtype: ratio of α7 to α9α10 IC50
[3] = cited from earlier work; for tolerance to the antihyperalgesic effect: rat, repeated dosing (7 days)
[4] = rat; cited from earlier work
[5] = target: κ-opioid receptors (Homo sapiens, UniProt P41145); assay: Affinity for κ-opioid receptors; format: binding; details: unpublished data
[6] = target: T1, 5HT3 receptors (Homo sapiens, UniProt P46098); assay: Affinity for 5HT3 receptors; format: binding; details: unpublished data
T1 sequence (P46098 24-478): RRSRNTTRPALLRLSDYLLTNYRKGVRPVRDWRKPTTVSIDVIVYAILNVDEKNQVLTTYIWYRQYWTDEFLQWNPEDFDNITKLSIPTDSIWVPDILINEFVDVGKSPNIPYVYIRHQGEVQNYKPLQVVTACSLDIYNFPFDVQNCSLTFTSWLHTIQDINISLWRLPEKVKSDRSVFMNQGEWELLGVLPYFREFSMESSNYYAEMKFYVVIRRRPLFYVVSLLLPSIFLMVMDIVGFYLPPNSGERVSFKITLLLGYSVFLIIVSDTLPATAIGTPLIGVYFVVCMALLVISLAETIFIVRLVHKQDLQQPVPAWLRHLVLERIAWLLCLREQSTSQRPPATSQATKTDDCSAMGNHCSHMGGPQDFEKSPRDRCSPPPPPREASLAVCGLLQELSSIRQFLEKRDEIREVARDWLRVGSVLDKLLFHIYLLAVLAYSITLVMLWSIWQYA

[7] = system: GABAA receptors; assay: Interaction with GABAA receptors; details: unpublished data
[8] = target: GABAB receptors (Homo sapiens, UniProt O75899+Q9UBS5); assay: Interaction with GABAB receptors; details: unpublished data
[9] = cited from earlier work
[10] = phase 2; cited from earlier work
[11] = rat CCI pain model as printed; cited from earlier work

α9α10 nAChRs, sequence (P43144 26-479): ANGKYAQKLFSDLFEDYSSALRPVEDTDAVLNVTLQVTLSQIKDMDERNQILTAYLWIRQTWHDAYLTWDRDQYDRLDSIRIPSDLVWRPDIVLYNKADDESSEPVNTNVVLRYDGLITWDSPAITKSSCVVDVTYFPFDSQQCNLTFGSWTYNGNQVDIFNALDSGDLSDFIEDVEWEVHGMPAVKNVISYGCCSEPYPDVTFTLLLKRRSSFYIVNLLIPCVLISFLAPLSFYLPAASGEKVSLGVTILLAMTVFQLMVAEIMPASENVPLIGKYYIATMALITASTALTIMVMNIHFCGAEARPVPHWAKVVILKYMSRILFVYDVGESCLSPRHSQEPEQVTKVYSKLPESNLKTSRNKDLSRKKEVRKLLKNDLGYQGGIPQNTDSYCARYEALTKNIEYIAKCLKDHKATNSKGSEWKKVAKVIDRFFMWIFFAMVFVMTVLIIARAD
α9α10 nAChRs, sequence (Q9JLB5 25-447): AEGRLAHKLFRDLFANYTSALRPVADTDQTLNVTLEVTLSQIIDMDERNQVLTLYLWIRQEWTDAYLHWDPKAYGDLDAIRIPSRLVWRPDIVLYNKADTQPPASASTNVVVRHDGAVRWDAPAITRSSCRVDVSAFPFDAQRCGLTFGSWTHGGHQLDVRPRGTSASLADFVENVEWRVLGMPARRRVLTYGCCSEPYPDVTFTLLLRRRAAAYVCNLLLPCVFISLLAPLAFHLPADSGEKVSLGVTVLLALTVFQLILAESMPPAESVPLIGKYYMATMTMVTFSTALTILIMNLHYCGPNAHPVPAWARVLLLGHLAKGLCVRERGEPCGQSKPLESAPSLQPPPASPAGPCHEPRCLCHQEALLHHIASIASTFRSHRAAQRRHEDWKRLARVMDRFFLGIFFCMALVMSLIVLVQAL
α7 nAChR, sequence (Q05941 23-502): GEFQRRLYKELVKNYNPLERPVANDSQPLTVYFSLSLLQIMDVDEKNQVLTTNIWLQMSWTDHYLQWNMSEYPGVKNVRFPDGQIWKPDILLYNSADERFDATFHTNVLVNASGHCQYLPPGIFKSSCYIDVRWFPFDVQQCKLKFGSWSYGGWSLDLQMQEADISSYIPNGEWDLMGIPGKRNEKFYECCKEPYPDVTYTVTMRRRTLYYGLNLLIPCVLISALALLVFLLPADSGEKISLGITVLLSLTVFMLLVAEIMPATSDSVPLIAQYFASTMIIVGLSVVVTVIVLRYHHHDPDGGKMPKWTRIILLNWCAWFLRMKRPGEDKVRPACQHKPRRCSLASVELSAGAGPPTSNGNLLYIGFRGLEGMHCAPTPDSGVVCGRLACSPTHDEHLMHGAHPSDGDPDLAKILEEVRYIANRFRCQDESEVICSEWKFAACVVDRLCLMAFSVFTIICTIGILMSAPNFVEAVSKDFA
GABAB receptors, sequence (Q9UBS5 15-961 limits assumed): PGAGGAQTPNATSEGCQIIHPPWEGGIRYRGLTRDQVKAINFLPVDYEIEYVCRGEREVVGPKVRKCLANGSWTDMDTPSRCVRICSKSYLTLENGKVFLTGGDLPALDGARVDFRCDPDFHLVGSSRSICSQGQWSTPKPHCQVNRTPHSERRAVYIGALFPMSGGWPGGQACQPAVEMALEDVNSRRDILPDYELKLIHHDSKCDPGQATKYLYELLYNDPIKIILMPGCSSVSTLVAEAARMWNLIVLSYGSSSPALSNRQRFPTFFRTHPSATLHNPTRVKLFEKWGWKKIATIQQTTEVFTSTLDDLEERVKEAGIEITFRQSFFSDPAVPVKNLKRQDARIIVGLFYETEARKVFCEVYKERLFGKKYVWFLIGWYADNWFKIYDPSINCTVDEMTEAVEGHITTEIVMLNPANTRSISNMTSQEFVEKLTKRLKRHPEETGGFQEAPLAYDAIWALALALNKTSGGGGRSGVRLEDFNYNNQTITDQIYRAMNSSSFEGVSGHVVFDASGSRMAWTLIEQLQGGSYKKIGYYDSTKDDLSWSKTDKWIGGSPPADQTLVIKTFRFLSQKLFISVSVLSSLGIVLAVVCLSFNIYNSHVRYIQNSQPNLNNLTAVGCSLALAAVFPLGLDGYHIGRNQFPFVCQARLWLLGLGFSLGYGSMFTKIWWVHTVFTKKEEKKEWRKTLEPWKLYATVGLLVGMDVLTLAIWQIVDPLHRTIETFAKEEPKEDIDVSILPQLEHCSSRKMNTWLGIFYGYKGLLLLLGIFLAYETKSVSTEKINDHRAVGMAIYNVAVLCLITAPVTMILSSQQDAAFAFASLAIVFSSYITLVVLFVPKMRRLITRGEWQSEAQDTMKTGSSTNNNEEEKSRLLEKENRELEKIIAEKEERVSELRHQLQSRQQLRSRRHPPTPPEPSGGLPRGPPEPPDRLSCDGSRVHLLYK
GABAB receptors, sequence (O75899 42-941): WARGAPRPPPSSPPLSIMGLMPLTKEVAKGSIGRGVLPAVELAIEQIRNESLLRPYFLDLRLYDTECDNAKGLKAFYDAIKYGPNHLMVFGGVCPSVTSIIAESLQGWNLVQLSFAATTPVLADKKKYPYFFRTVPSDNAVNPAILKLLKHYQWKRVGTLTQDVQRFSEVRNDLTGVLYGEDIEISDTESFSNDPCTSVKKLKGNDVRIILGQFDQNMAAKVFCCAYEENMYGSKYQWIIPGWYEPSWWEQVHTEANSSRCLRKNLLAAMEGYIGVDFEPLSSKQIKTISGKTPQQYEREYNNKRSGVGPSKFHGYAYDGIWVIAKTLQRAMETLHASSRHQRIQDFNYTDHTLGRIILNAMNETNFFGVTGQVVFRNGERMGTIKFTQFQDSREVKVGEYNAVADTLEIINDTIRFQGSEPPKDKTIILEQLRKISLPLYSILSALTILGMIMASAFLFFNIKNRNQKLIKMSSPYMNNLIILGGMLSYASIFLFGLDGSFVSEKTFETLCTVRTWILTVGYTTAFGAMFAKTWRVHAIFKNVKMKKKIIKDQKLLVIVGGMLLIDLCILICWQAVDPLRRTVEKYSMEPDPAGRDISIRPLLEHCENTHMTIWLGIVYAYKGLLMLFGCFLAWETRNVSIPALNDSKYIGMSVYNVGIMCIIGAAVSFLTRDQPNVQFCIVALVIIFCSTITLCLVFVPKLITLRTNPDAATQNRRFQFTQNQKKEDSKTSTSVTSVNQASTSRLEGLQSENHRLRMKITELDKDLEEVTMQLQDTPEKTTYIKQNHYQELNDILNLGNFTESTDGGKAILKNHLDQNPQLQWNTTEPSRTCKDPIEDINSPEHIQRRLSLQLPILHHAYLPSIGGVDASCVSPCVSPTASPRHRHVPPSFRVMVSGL
κ-opioid receptors, sequence (P41145 whole entry): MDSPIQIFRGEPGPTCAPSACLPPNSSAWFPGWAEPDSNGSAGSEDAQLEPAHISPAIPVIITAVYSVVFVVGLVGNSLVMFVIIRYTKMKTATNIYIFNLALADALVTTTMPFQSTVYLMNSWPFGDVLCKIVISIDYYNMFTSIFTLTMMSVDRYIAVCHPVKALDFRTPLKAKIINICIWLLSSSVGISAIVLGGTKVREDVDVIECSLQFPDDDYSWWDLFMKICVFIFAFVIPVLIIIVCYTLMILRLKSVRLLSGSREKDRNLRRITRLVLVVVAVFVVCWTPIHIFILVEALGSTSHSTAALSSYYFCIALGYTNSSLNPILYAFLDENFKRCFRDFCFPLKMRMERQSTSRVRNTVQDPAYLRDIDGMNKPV

SMILES	IC50 [1]	IC50 [2]	effect on mechanical hyperalgesia in the rat CCI model [3]	tolerance to the antihyperalgesic effect [3]	efficacious doses versus doses producing toxicity in the rotarod test [4]	analgesic effect in the rat tail-flick test [9]	inhibition of α9α10 ACh-gated currents at the probe concentration [2]	analgesic effect in the rat formalin model [10]	further results
c1ccc(-c2ccc[n+](CCCCCc3cc(CCCCC[n+]4cccc(-c5ccccc5)c4)cc(CCCCC[n+]4cccc(-c5ccccc5)c4)c3)c2)cc1 [Compound 10e]	91 nM	3.7 nM	–	–	–	–	–	–	–
C(#Cc1cc(C#CCCC[n+]2cccc(-c3ccccc3)c2)c(C#CCCC[n+]2cccc(-c3ccccc3)c2)cc1C#CCCC[n+]1cccc(-c2ccccc2)c1)CCC[n+]1cccc(-c2ccccc2)c1.[Br-].[Br-].[Br-].[Br-] [Compound 11e]	8.8 nM	0.56 nM	reversed mechanical hyperalgesia in a dose-related manner	not observed	efficacy was achieved at doses well below those that produced toxicity	ineffective	nearly complete inhibition	demonstrated an analgesic effect	affinity for κ-opioid receptors compared to α9α10 nAChRs [5]: several orders of magnitude lower affinity; affinity for 5HT3 receptors compared to α9α10 nAChRs [6]: several orders of magnitude lower affinity; interaction with GABAA receptors [7]: does not interact; interaction with GABAB receptors [8]: does not interact
c1ccc2c[n+](CCCCCc3cc(CCCCC[n+]4ccc5ccccc5c4)cc(CCCCC[n+]4ccc5ccccc5c4)c3)ccc2c1 [Compound 10d]	170 nM	4.8 nM	–	–	–	–	–	–	–
[Br-].[Br-].[Br-].c1ccc2c(c1)ccc[n+]2CCCCCc1cc(CCCCC[n+]2cccc3ccccc32)cc(CCCCC[n+]2cccc3ccccc32)c1 [Compound 10c]	1510 nM	4.2 nM	reversed mechanical hyperalgesia in a dose-related manner	not observed	efficacy was achieved at doses well below those that produced toxicity	ineffective	–	demonstrated an analgesic effect	–
Cc1cc(C)c[n+](CCCC#Cc2cc(C#CCCC[n+]3cc(C)cc(C)c3)c(C#CCCC[n+]3cc(C)cc(C)c3)cc2C#CCCC[n+]2cc(C)cc(C)c2)c1.[Br-].[Br-].[Br-].[Br-] [Compound 11b]	–	–	–	–	–	–	nearly complete inhibition	–	–
Cc1cc[n+](CC#Cc2ccc(-c3ccc(C#CC[n+]4ccc(C)c(C)c4)cc3)cc2)cc1C.[Br-].[Br-] [Compound 7a]	–	–	reversed mechanical hyperalgesia in a dose-related manner	not observed	efficacy was achieved at doses well below those that produced toxicity	ineffective	–	demonstrated an analgesic effect	selectivity for the α9α10 subtype vs. the α7 subtype [2]: 75 fold; alleviation of vincristin-induced neuropathic pain [11]: effective
Cc1cc(C)c[n+](CCCCCc2cc(CCCCC[n+]3cc(C)cc(C)c3)c(CCCCC[n+]3cc(C)cc(C)c3)cc2CCCCC[n+]2cc(C)cc(C)c2)c1.[Br-].[Br-].[Br-].[Br-] [Compound 12b]	–	–	–	–	–	–	nearly complete inhibition	–	–
Cc1cc[n+](CCCc2ccc(-c3ccc(CCC[n+]4ccc(C)c(C)c4)cc3)cc2)cc1C.[Br-].[Br-] [Compound 8a]	6010 nM	670 nM	–	–	–	–	–	–	selectivity for the α9α10 subtype vs. the α7 subtype [2]: 9 fold
C(#Cc1cc(C#CCCC[n+]2cccc(-c3ccccc3)c2)cc(C#CCCC[n+]2cccc(-c3ccccc3)c2)c1)CCC[n+]1cccc(-c2ccccc2)c1 [Compound 9e]	185 nM	1.7 nM	–	–	–	–	–	–	–
